Assay results published in US20120059020A1, “PROPHYLACTIC OR THERAPEUTIC AGENT FOR PULMONARY FIBROSIS” (SHIZUOKA COFFEIN CO., LTD, priority 2009, published 2012).

Legend:
Solubility test in water = format: physicochemical
Description: Solubility test on a 2Na salt of a typical compound (1) (disodium salt of [5-[[6-[4-phenyl-6-(phenylmethoxy)-2-pyrimidinyl]-2-naphthalenyl]oxy]pentyl]propanedioic acid) used in the present invention in water is shown below.
Water of 20±2° C. was added to the 2Na salt of the compound (1), and the mixture was vigorously shaken for 30 seconds and left standing for 5 minutes. This operation was repeated until the 2Na salt of the compound (1) was completely dissolved. The final amount of water required for the dissolution was determined. The solubility of the 2Na salt of the compound (1) in water of 45±5° C. was determined by similar operation.

[1] = Stability test in aqueous solution (HPLC assay); format: physicochemical; details: for Purity: aqueous solution 1 g/100 mL, 35° C.
Description: Stability test on the 2Na salt of the compound (1) used in the present invention in an aqueous solution is shown below.
Injectable distilled water was added to 1 g of the 2Na salt of the compound (1) to prepare 100 mL of a sample solution. The sample solution was equally divided. One portion was shielded against light, and the other portion was unshielded. Each of them was stored at 35° C. for 11 days during which these sample solutions were assayed over time using high-performance liquid chromatography and examined for stability.
YMC-Pack ODS-A A-302 (YMC Co., Ltd.) was used as a column, and the column temperature was kept at a constant temperature around 40° C. A tetrahydrofuran/0.1% phosphoric acid (54:46) mixed solution was used as a mobile phase. A flow rate was adjusted such that the retention time of the compound (1) was approximately 7 minutes. An ultraviolet absorptiometer (measurement wavelength: 265 nm) was used as a detector.

[2] = tested on: mouse models with bleomycin-induced pulmonary fibrosis; assay: In vivo effect on pulmonary fibrosis induced by bleomycin; parameters: species or system C57BL/6 mice
Source text: The present inventors conducted a test using mouse models with pulmonary fibrosis induced by transtracheally administering bleomycin, for the purpose of studying the antifibrotic action of the propanedioic acid derivative of the present invention in vivo. This experimental model of pulmonary fibrosis is clinically similar to idiopathic pulmonary fibrosis in pathological observations such as increased inflammatory cells and the increased amount of hydroxyproline in an extracellular matrix-constituting collagen ingredient used as an index for fibrosis, and is widely used.
C57BL/6 mice (female, 12 week old, body weight: 20 to 23 g) were anesthetized by the intraperitoneal administration of pentobarbital. The trachea was incised, and bleomycin (NIPPON KAYAKU CO., LTD.) (1.5 mg/kg) dissolved in saline was transtracheally administered thereto. […]
20 days after bleomycin administration, a bronchoalveolar lavage fluid (BALF) was collected from each mouse, and a PAI-1 concentration (ng/mL) in the fluid was measured using an ELISA kit (Mouse PAI-1 ELISA kit, Innovative research Inc.). Subsequently, the amount of hydroxyproline was measured for pulmonary fibrosis evaluation. The amount of hydroxyproline in the lung tissue was measured as the amount in a lung tissue hydrolysate according to the method of Kivirikko et al. (Anal. Biochem. 19, 249-255 (1967)). […]

Amount of solvent required for dissolving 1 g (Solubility test in water; Water (20 ± 2° C.)): 33 mL
Amount of solvent required for dissolving 1 g (Solubility test in water; Water (45 ± 5° C.)): 1.2 mL
Solubility in water (Solubility test in water; water): excellent in solubility in water
Stability of aqueous solution ([1]; 35° C. for 11 days, light-shielded or unshielded): stable
Purity ([1]; light-shielded, 0 days elapsed): 99.8%
Purity ([1]; light-shielded, 1 day elapsed): 99.8%
Purity ([1]; light-shielded, 6 days elapsed): 99.8%
Purity ([1]; light-shielded, 11 days elapsed): 99.8%
Purity ([1]; unshielded, 0 days elapsed): 99.8%
Purity ([1]; unshielded, 1 day elapsed): 99.8%
Purity ([1]; unshielded, 6 days elapsed): 99.7%
Purity ([1]; unshielded, 11 days elapsed): 99.7%
Compound: O=C([O-])C(CCCCCOc1ccc2cc(-c3nc(OCc4ccccc4)cc(-c4ccccc4)n3)ccc2c1)C(=O)[O-].[Na+].[Na+] [2Na salt of compound (1), disodium salt of [5-[[6-[4-phenyl-6-(phenylmethoxy)-2-pyrimidinyl]-2-naphthalenyl]oxy]pentyl]propanedioic acid]
Fibrotic process of the lung induced by bleomycin ([2]; 1000 ppm in drinking water, free feeding, mice, listed as 2Na salt of the compound (1)): remarkable effectiveness that suppressed the fibrotic process of the lung
Amount of hydroxyproline in lung tissue compared with the control group ([2]; group 2 (late stage): 1000 ppm in drinking water from 8 to 20 days after bleomycin (fibrotic stage), approx. 20 mg/kg/day, measured 20 days after bleomycin): significantly decreased
